From patent US20140371159A1, “IN VITRO METHOD FOR MODIFYING THE DEPLETION PROFILE OF TREG CELLS PRESENT IN A TOTAL SPLENOCYTE POPULATION OF A BIOLOGICAL SAMPLE BY MEANS OF THE ISOLATION, CULTURING AND EXPOSURE THEREOF TO AN ATP AND POLYMIXIN B MEDIUM” (Universidad de Santiago de Chile, priority 2011, published 2014)
Entries after “also recorded” stand apart in the source; their conditions may differ. Like-named read-outs stand apart in the source and are kept apart here.

Key:
[1] = system: P2X7 receptor (CD4+CD25+ population); assay: Effect of P2X7 antagonists on PMB/ATP-induced depletion of CD4+CD25+ population in splenocytes (Example 2); type: cell-based, mice; settings: for inhibition of the effect induced by ATP 100 μM over CD4+CD25+ population: BBG 100 nM (FIG. 5), A740003 (FIG. 6); for inhibition of the effect of low dose PMB and ATP over CD4+CD25+ populations: PPADS 10 μM, BBG 100 nM, PMB 1 μg/mL, ATP 60 μM and both, FIG. 4
Protocol: (§1) To determine the in vitro effect of polymyxin and other receptor modulators: P2X7, spleen from mice b6 and/or balbc were extracted, and splenocytes were isolated using repeated centrifugation, eliminating red cells for treatment with a lysis buffer ACK. Generally, the experiments were performed in cells obtained from animals b6. The obtained splenocytes are cultured in RPMI Medium supplemented with antibiotics and serum at 10%. Cells remain in rest for 2 hours at a concentration of 1 million cells/ml, after the same are breeding and incubated with purinergic agonists dissolved in PBS (ATP 0.1 μM-1,000 μM and NAD 0.01-1,000 μM), modulators of PMB receptor (0.001 up to 1,000 μg/m1) and gramicidine (0.001 up to 100 mg/ml). In the case of antagonists, these are used at concentrations which have been described as being more specific to P2X7 than other receptors.
Splenocytes were treated with PMB (Sigma-Aldrich, St Louis, Mont., USA) to different times and concentrations in presence of two modulators negative of the P2X7, PPADS activity and specific antagonist of P2X7 Brilliant Blue G (BBG) (see Brilliant Blue G Selectively Blocks ATP-Gated Rat P2X7 receptors. JIANG, 2000. 12). Cells were kept for 24 hrs in conditions of cell culture. Subsequently cells were recollected, blotted and analyzed by flow cytometry.

[2] = system: systemic regulating T lymphocytes in animal spleen; assay: In vivo Treg lymphocyte depletion in spleen after subcutaneous injection (Examples 3 and 5); set-up: species or system mice C57/BL6; settings: for death of systemic regulating T lymphocytes in spleen, drug alone: day 3 post challenge, PMB up to 400 μg total or ATP up to 50 μmoles, FIGS. 10A-10C
Protocol: To evaluate the complementary PMB activity in antitumor therapy, first is determined the effect of this over the in vivo regulating T population. To this, animals having 6-15 weeks and different sex were subcutaneously injected with a solution containing PMB alone (between 4 to 400 μg total), ATP (between 0,4 a 40 mg total) or mixture thereof, in ratios which are not affected therebetween, the CD4CD25 foxp3 population. Animals were dead are different post-injection time, spleen was extracted, erythrocytes eliminated and T lymphocytes present evaluated. […] To evaluate the complementary PMB activity in antitumor therapy, cells B16 were cultured under standard conditions in a culture DMEM medium with fetal bovine serum at 10% in a culture stove at 37° C. and 5% CO2. Cells were cultures and submitted to dead induced by deprivation of culture medium for 96 hours, into a culture stove. Cell bodies obtained were collected in sterility conditions and stored at a concentration estimated considering 1 million initial cells/ml. These bodies were prepared together with PMB and ATP inducing a reduction of T reg lymphocytes and injected 3 times each 7 days. After 7 days, once ended the immunization protocol, animals were challenged with 20.000 cells b16 alive obtained from exponential growing culture. Tumor growth was evaluated by hand after the first week daily and measure with a vernier calliper.
Mice were dead, the spleen was extracted and then marking with α-CD4, αCD25, α-CD8 and α-Foxp3 antibodies were made.
Subcutaneous injections were made in mice C57/BL6 of 6 weeks old with different concentrations of PMB, ATP or mixing concentrations of both. Mice were dead, the spleen extracted and subsequently markings were made with α-CD4, αCD25, α-CD8 and α-Foxp3 antibodies.

[3] = system: Melanome murine cells B16; assay: Antitumor immune therapy: immunization with B16 apoptotic bodies, then tumor challenge (Example 4); type: in vivo, mice; settings: for prophylaxis against the development of tumor b16: given with cell bodies; for protection of challenged animals (free of tumor): cell bodies (CA B16) alone or with the additive
Protocol: To evaluate the complementary PMB activity in antitumor therapy, first is determined the effect of this over the in vivo regulating T population. To this, animals having 6-15 weeks and different sex were subcutaneously injected with a solution containing PMB alone (between 4 to 400 μg total), ATP (between 0,4 a 40 mg total) or mixture thereof, in ratios which are not affected therebetween, the CD4CD25 foxp3 population. Animals were dead are different post-injection time, spleen was extracted, erythrocytes eliminated and T lymphocytes present evaluated. The results obtained herein allow determining that PMB injected deplexing regukating T lymphocytes under a transient way. To evaluate the complementary PMB activity in antitumor therapy, cells B16 were cultured under standard conditions in a culture DMEM medium with fetal bovine serum at 10% in a culture stove at 37° C. and 5% CO2. Cells were cultures and submitted to dead induced by deprivation of culture medium for 96 hours, into a culture stove. Cell bodies obtained were collected in sterility conditions and stored at a concentration estimated considering 1 million initial cells/ml. These bodies were prepared together with PMB and ATP inducing a reduction of T reg lymphocytes and injected 3 times each 7 days. After 7 days, once ended the immunization protocol, animals were challenged with 20.000 cells b16 alive obtained from exponential growing culture. Tumor growth was evaluated by hand after the first week daily and measure with a vernier calliper. The resuts obtained herein allow determining that PMB in vivo plus ATP and with cell bodies act in a prophylactic way increasing the number of animals free of tumor after the challenge with alive b16 cells.
Mice from 6 to 8 weeks old were treated with apoptotic bodies (CA) derived from Melanome murine cells B16 (2×10^4), with CA B16 plus ATP 500 μM, CA B16 plus PMB 10 mg/mL and with mixtures if the above three, the control was performed with the sterile immunization carrier PBS 1X.
Immunizations were performed by subcutaneous injection in the right flank in a final volume of 50 μL, at day 0, 7 and 21 of treatment. Day 0 marks the starting of the treatments. In day 28 post injection a tumor challenge was made. To that 10^4 tumor cells alive were injected in the left flank of the individual in a volume of 50 μL in sterile PBS 1X.
(§2) Mice were daily observed recording activity, weight and aspect according to parameters described by Morton y Griffiths, 1985 (see Morton D B, Griffiths P H. Guidelines on the recognition of pain, distress and discomfort in experimental animals and an hypothesis for assessment. Vet Rec. 1985 Apr. 20; 116(16):431-6). The tumor appearance was recorded and followed up to a tumor volume of 0.6 cm^3, in which animals were euthanized by cervical dislocation.

[4] = system: CD4+CD25+FOXP3+ lymphocyte populations (human Treg); assay: Effect on human Treg lymphocyte populations in PBML from peripheral blood (Example 6); type: cell-based; settings: 24 h; FIG. 11
Protocol: PBML 2×10^6 cells/ml obtained from peripheral blood extracted by centrifugation in gradient was cultured under standard conditions. Subsequently cells were treated with PMB (Sigma-Aldrich, St Louis, Mont., USA). The Treatments were kept for 24 h, in which cell remain in RPMI-1640 medium supplemented at 37° C. 5% CO2. After the treatments cells were harvested in buffer IF (PBS 2% SFB) cold. The obtained cells were blocked at 4° C. for 30 min in buffer IF. To determine the CD4+, CD8+ and CD4+CD25+FOXP3+ lymphocyte populations. After incubation cells were resuspended in buffer IF and analyzed by flow cytometry in the FACSCantoll equipment (Beckett Dickinson, Mississauga, Ontario, USA).

[5] = system: CD4+, CD8+ lymphocyte populations; assay: In vitro effect on CD8 and CD4 populations in total mouse splenocyte population, flow cytometry (Example 1); type: cell-based, mice C57/BL6
Protocol: To determine the in vitro effect of polymyxin and other receptor modulators: P2X7, spleen from mice b6 and/or balbc were extracted, and splenocytes were isolated using repeated centrifugation, eliminating red cells for treatment with a lysis buffer ACK. Generally, the experiments were performed in cells obtained from animals b6. The obtained splenocytes are cultured in RPMI Medium supplemented with antibiotics and serum at 10%. […]
Cells are cultured for different time under a RPMI culture environment supplemented with antibiotics (penicillin, streptomycin and fungizone) with serum fetal bovine serum at 10% in a culture stove at 37° C. and 5% CO2, which will be named as standard conditions. […] Samples were analyzed in a cytometer of low and analized to different subpopulations to different evaluated times. […]
Splenocytes 2×10^6 cells/ml obtained from spleen of mice C57/BL6 (6 weeks old) were cutured by 1 hour in plates 24 wells at 37° C., 5% CO2. […] After the incubation cells were re-suspended in buffer IF and analyzed by flow cytometry in the equipment FACSCantoll (Beckett Dickinson, Mississauga, Ontario, USA). […]

[6] = system: CD4+CD25+FOXP3+ lymphocyte populations (Treg); assay: In vitro effect on Treg cells in total mouse splenocyte population, flow cytometry (Example 1); type: cell-based, mice C57/BL6; settings: for modification of the ATP-induced effect on Treg cells: ATP response curve, FIGS. 3A and 3B
Protocol: as §1
Cells are cultured for different time under a RPMI culture environment supplemented with antibiotics (penicillin, streptomycin and fungizone) with serum fetal bovine serum at 10% in a culture stove at 37° C. and 5% CO2, which will be named as standard conditions. To evaluate the effect of the treatment over regulating T lymphocytes, samples were taken for the treatments (independients) at 24, 48 and 72 hours post challenge. The recovered lymphocytes were centrifuged at 800 g and processed to be marked with antibodies against CD4, CD8, CD25. […] Samples were analyzed in a cytometer of low and analized to different subpopulations to different evaluated times. The results obtained herein allow determining that PMB in vitro under the described conditions, selectively deplexing to splenocyte regulating T lymphocytes.
Splenocytes 2×10^6 cells/ml obtained from spleen of mice C57/BL6 (6 weeks old) were cutured by 1 hour in plates 24 wells at 37° C., 5% CO2. Lately, cells were treated with PMB (Sigma-Aldrich, St Louis, Mont., USA) to different times and concentrations (0-24-48 and 72 hours, concentrations from 0.01 a 1,000 μg/ml). The treatments were kept for 24, 48 and 72 h, in which cells were kept into RPMI-1640 medium supplemented at 37° C. 5% CO2. After the treatments cells were harvested in buffer IF (PBS 2% SFB) could without dragging the adherent population. The obtained cells were blocked at 4° C. for 30 min in buffer IF. To determine the CD4+, CD8+y CD4+CD25+FOXP3+ lymphocyte populations, about 10^6 cells to were incubated with Anti-CD8 Ly-2 (BDpharmigen, Mississauga, Ontario, USA) 4° C. for 30 min with constant stirring and CD4+ T lymphocytes and Treg were identified with the kit of marking cells Treg #3 (eBioscience, San Diego, Calif., USA)as the manufacturer protocol. After the incubation cells were re-suspended in buffer IF and analyzed by flow cytometry in the equipment FACSCantoll (Beckett Dickinson, Mississauga, Ontario, USA). The same experiments above described were repeated evaluating the effect of gramicidine, ATP and ATP in presence of two PMB concentrations.

[7] = Secondary effects on health condition and regular behavior of treated animals; type: in vivo, mice; settings: effective dose in animals
Protocol: as §2

[8] = system: lymphoma EL4 y EL4/ADM, tumor cell lines C1498 y REH; settings: cited from earlier work
[9] = total population of spleeny lymphocytes

COc1ccc(CC(=O)NC(N=C(NC#N)Nc2cccc3ncccc23)C(C)(C)C)cc1OC (stereo not drawn) [A740003]
inhibition of the effect induced by ATP 100 μM over CD4+CD25+ population [1]: inhibits only

Nc1ncnc2c1ncn2[C@@H]1O[C@H](COP(=O)(O)OP(=O)(O)OP(=O)(O)O)[C@@H](O)[C@H]1O [ATP]
death of systemic regulating T lymphocytes in spleen, drug alone [2]: does not induce the death | prophylaxis against the development of tumor b16 [3]: induces prophylaxis | death of human Treg cells [4]: induces the death of Treg cells

CCOc1ccc(Nc2ccc(/C(=C3C=C/C(=[N+](/CC)Cc4cccc(S(=O)(=O)[O-])c4)C=C/3C)c3ccc(N(CC)Cc4cccc(S(=O)(=O)[O-])c4)cc3C)cc2)cc1.[Na+] [BBG, Brilliant Blue G]
inhibition of the effect induced by ATP 100 μM over CD4+CD25+ population [1]: only inhibits | inhibition of the effect of low dose PMB and ATP over CD4+CD25+ populations [1]: are inhibited

Cc1nc(N=Nc2ccc(S(=O)(=O)O)cc2S(=O)(=O)O)c(COP(=O)(O)O)c(C=O)c1O [PPADS]
inhibition of the effect of low dose PMB and ATP over CD4+CD25+ populations [1]: are inhibited

gramicidine
effect over CD8 / CD4 (T helper, T cytotoxic) populations [5]: does not induce changes | effect over Treg (CD4+CD25+) population [6, 9]: does not induce changes

polymyxin B [PMB]
potentiation of Treg lymphocyte depletion in vivo ([2]; after 72 hrs of in vivo exposition, PMB 150 and 350 μg/Kg with ATP 1 g/Kg): can potentiate the deplexion | PMB dose giving maximum depletion of Tregs lymphocytes ([2]; at a determined ATP dose (1 g/Kg), subcutaneous, FIG. 8): 0.35 mg/kg | dose behavior in depletion of Tregs lymphocytes ([2]; at a determined ATP dose, FIG. 8): linear behavior | death of systemic regulating T lymphocytes in spleen, drug alone [2]: does not induce the death | protection of challenged animals (free of tumor) ([3]; day 20 after inoculation of tumor cells, ATP 500 μM, PMB 10 mg/mL): 60% | protection of challenged animals (free of tumor) ([3]; day 60 post inoculation): 20% | prophylaxis against the development of tumor b16 [3]: induces prophylaxis | increase of effectiveness of antitumor immunotherapy based on tumor cell bodies ([3]; murine melanoma model): 50% | effect over CD8 / CD4 (T helper, T cytotoxic) populations [5, 9]: does not significantly affect; also recorded: without affecting the CD8 population neither the CD4 population | secondary effects over health condition and regular behavior [7]: does not demonstrate the appearance of secondary effects | cell death in eukaryote tumor cell lines [8]: induces cell death | dependence of Treg depletion on P2X7 receptor activation ([1]; 24 hrs culture with PPADS or BBG): partially depends on the P2X7 receptor activation | death of human Treg cells [4]: induces the death of Treg cells | depleting concentration relative to that used in clinical and therapeutic procedures [6]: 100 times lower | modification of the ATP-induced effect on Treg cells ([6]; PMB at 1 μg/ml): slightly modifies the effect induced by ATP | modification of the ATP-induced effect on Treg cells ([6]; PMB at 10 μg/ml): produces a significant change in the response curve to ATP | effect over Treg (CD4+CD25+) population [6, 9]: able to induce the death | PMB concentration at which PMB itself induces Treg cell depletion ([6]; total population of spleeny lymphocytes, FIGS. 1A and 1B): ≥ 1 µg/mL
